Measurements: patent US10723741B1, “DNA polymerase IIIC inhibitors and use thereof” (Acurx Pharmaceuticals, LLC, priority 2018, dated 2020)
Converted amounts (≈) assume the structure as drawn. Counter-ions that a name gives are not always drawn. Like-named read-outs stand apart in the source and are kept apart here.

Legend:
Type in all cases: cell-based
[1] = system: Streptococcus pneumoniae ATCC 49619; assay: Broth microdilution MIC, S. pneumoniae ATCC 49619; details: read-out: MIC S. pneumoniae ATCC 49619
Method in brief: (§1)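 Two-fold dilutions from 64 to 0.0625 μg/ml final, 1% DMSO, were inoculated at ~5.0×10^5 cfu/ml in the strain's test medium and kept 20 h at 37 °C in ambient atmosphere. Colonies were grown on MHA, with S. pneumoniae on blood agar under 5% CO2.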

[2] = system: Escherichia coli ATCC 25922; assay: Broth microdilution MIC, E. coli ATCC 25922 (MHIIB w & w/o 4 mM EDTA); details: for MIC: Escherichia coli, read-out: MIC E. coli ATCC 25922; for MIC E. coli ATCC 25922 + 4 mM EDTA: with 4 mM EDTA
Method in brief: as §1

[3] = system: Staphylococcus aureus NRS384 (MRSA); assay: Broth microdilution MIC, S. aureus NRS384 (MRSA); set-up: MIC NRS 384 (MRSA): unit not given here; details: broth microdilution, 37° C., 20 hours; for MIC: Staphylococcus aureus, read-out: MIC NRS 384 (MRSA)
Method in brief: as §1

[4] = system: Enterococcus faecium ATCC 700221 (VRE); assay: Broth microdilution MIC, E. faecium ATCC 700221 (VRE); set-up: MIC E. faecium ATCC 700221 (VRE): unit: ug/mL; details: broth microdilution, 37° C., 20 hours; for MIC: Enterococcus faecium, read-out: MIC E. faecium ATCC 700221 (VRE)
Method in brief: as §1

[5] = system: Enterococcus faecalis ATCC 29212; assay: Broth microdilution MIC, E. faecalis ATCC 29212; details: read-out: MIC E. faecalis ATCC 29212
Method in brief: as §1

[6] = system: Staphylococcus aureus ATCC 29213 (MSSA); assay: Broth microdilution MIC, S. aureus ATCC 29213 (MSSA); details: read-out: MIC S. aureus ATCC 29213 (MSSA)
Method in brief: as §1

[7] = system: Bacillus subtilis ATCC 6633; assay: Broth microdilution MIC, B. subtilis ATCC 6633; details: read-out: MIC B. subtilis ATCC 6633
Method in brief: as §1

[8] = ATCC49619, broth microdilution, 37° C., 20 hours
[9] = ATCC25922, without EDTA, broth microdilution, 37° C., 20 hours
[10] = broth microdilution, 37° C., 20 hours
[11] = ATCC29212, broth microdilution, 37° C., 20 hours
[12] = ATCC6633, broth microdilution, 37° C., 20 hours

Row | Structure (SMILES) | MIC [1, 8] [µg/mL] | MIC [2, 9] [µg/mL] | MIC E. coli ATCC 25922 + 4 mM EDTA [2, 10] | MIC [3] [µg/mL] | MIC [4] [µg/mL] | MIC [5, 11] [µg/mL] | MIC [6, 10] [µg/mL] | MIC [7, 12] [µg/mL] | MIC NRS 384 (MRSA) [3] | MIC E. faecium ATCC 700221 (VRE) [4] | MIC ([1]; ATCC49619, 20 h) [µg/mL] | MIC ([2]; ATCC25922, 20 h) [µg/mL] | MIC ([5]; ATCC29212, 20 h) [µg/mL] | MIC ([6]; 20 h) [µg/mL] | MIC ([7]; ATCC6633, 20 h) [µg/mL]
1 | O=c1[nH]c(NCc2ccc(Cl)c(Cl)c2)nc2cnn(CCCOC3CC(O)C3)c12 (stereo not shown) [Compound 179, 5-((3,4-dichlorobenzyl)amino)-1-(3-(3-hydroxycyclobutoxy)propyl)-1H-pyrazolo[4,3-d]pyrimidin-7(6H)-one] | 4 (≈ 9.13 µM) | > 64 | >64 µg/mL | 4 (≈ 9.13 µM) | 2 (≈ 4.56 µM) | 4 (≈ 9.13 µM) | 8 (≈ 18.3 µM) | 1 (≈ 2.28 µM) | – | – | – | – | – | – | –
2 | Cl.Cl.O=c1[nH]c(NCc2ccc(Cl)c(Cl)c2)nc2cnn(C3CCN(c4ccncc4)C3)c12 (stereo not shown) [Compound 180, 5-((3,4-Dichlorobenzyl)amino)-1-(1-(pyridin-4-yl)pyrrolidin-3-yl)-1H-pyrazolo[4,3-d]pyrimidin-7(6H)-one dihydrochloride] | 4 | 64 | 16 µg/mL | – | – | 8 | 8 | 2 | 4/4 | 4/4 | – | – | – | – | –
3 | Cl.O=c1[nH]c(NCc2ccc(Cl)c(Cl)c2)nc2cnn(CCOCc3cccnc3)c12 [Compound 181, 5-((3,4-Dichlorobenzyl)amino)-1-(2-(pyridin-3-ylmethoxy)ethyl)-1H-pyrazolo[4,3-d]pyrimidin-7(6H)-one hydrochloride] | 4 | > 64 | >64. ug/ml | – | – | 8 | 4 | 1 | 4/2 | 4/1 | – | – | – | – | –
4 | O=c1[nH]c(NCc2ccc(Cl)c(Cl)c2)nc2cnn(CC3CCCN3c3ccccn3)c12 (stereo not shown) [Compound 182, 5-((3,4-dichlorobenzyl)amino)-1-((1-(pyridin-2-yl)pyrrolidin-2-yl)methyl)-1H-pyrazolo[4,3-d]pyrimidin-7(6H)-one dihydrochloride] | – | – | >64 µg/mL | – | – | – | – | – | 4/8 | 4/2 | 8 | > 64 | 8 | 4 | 2
5 | COCC(CN(C)C)OCCn1ncc2nc(NCc3ccc(Cl)c(Cl)c3)[nH]c(=O)c21.Cl (stereo not shown) [Compound 183, 5-((3,4-dichlorobenzyl)amino)-1-(2-((1-(dimethylamino)-3-methoxypropan-2-yl)oxy)ethyl)-1H-pyrazolo[4,3-d]pyrimidin-7(6H)-one hydrochloride] | 8 | > 64 | >64 µg/mL | 64 | 32 | 32 | 64 | 8 | – | – | – | – | – | – | –
6 | CNCC(COC)OCCn1ncc2nc(NCc3ccc(Cl)c(Cl)c3)[nH]c(=O)c21.Cl (stereo not shown) [Compound 184, 5-((3,4-dichlorobenzyl)amino)-1-(2-((1-methoxy-3-(methylamino)propan-2-yl)oxy)ethyl)-1H-pyrazolo[4,3-d]pyrimidin-7(6H)-one] | 8 | > 64 | 64 µg/mL | 64 | 64 | 64 | 64 | 8 | – | – | – | – | – | – | –
7 | COCC(OCCn1ncc2nc(NCc3ccc(Cl)c(Cl)c3)[nH]c(=O)c21)c1cccnc1.Cl (stereo not shown) [Compound 185, 5-((3,4-Dichlorobenzyl)amino)-1-(2-(2-methoxy-1-(pyridin-3-yl)ethoxy)ethyl)-1H-pyrazolo[4,3-d]pyrimidin-7(6H)-one hydrochloride] | 8 | > 64 | >64. ug/ml | 16 | 16 | 16 | 16 | 4 | – | – | – | – | – | – | –
8 | COC(=O)COCCOCCn1ncc2nc(NCc3ccc(Cl)c(Cl)c3)[nH]c(=O)c21 [Compound 186, methyl 2-(2-(2-(5-((3,4-dichlorobenzyl)amino)-7-oxo-6,7-dihydro-1H-pyrazolo[4,3-d]pyrimidin-1-yl)ethoxy)ethoxy)acetate] | > 64 | > 64 | >64 µg/mL | 8 (≈ 17 µM) | 4 (≈ 8.5 µM) | 16 (≈ 34 µM) | 16 (≈ 34 µM) | 4 (≈ 8.5 µM) | – | – | – | – | – | – | –
9 | O=C(O)COCCOCCn1ncc2nc(NCc3ccc(Cl)c(Cl)c3)[nH]c(=O)c21 [Compound 187, 2-(2-(2-(5-((3,4-dichlorobenzyl)amino)-7-oxo-6,7-dihydro-1H-pyrazolo[4,3-d]pyrimidin-1-yl)ethoxy)ethoxy)acetic acid] | > 64 | > 64 | >64 µg/mL | > 64 | 64 (≈ 140 µM) | 64 (≈ 140 µM) | > 64 | 64 (≈ 140 µM) | – | – | – | – | – | – | –
10 | O=c1[nH]c(NCc2ccc(Cl)c(Cl)c2)nc2cnn(CCOC3CCS(=O)(=O)CC3)c12 [Compound 188, 5-((3,4-dichlorobenzyl)amino)-1-(2-((1,1-dioxidotetrahydro-2H-thiopyran-4-yl)oxy)ethyl)-1H-pyrazolo[4,3-d]pyrimidin-7(6H)-one] | 8 (≈ 16.4 µM) | > 64 | >64 µg/mL | 16 (≈ 32.9 µM) | 4 (≈ 8.22 µM) | 8 (≈ 16.4 µM) | 16 (≈ 32.9 µM) | 4 (≈ 8.22 µM) | – | – | – | – | – | – | –
11 | O=c1[nH]c(NCc2ccc(Cl)c(Cl)c2)nc2cnn(Cc3ccc(O)c(O)c3)c12 [Compound 189, 5-((3,4-dichlorobenzyl)amino)-1-(3,4-dihydroxybenzyl)-1H-pyrazolo[4,3-d]pyrimidin-7(6H)-one] | 64 (≈ 148 µM) | > 64 | 64 µg/mL | 16 (≈ 37 µM) | 8 (≈ 18.5 µM) | 16 (≈ 37 µM) | 16 (≈ 37 µM) | 16 (≈ 37 µM) | – | – | – | – | – | – | –
12 | COc1ccc(Cn2ncc3nc(NCc4ccc(Cl)c(Cl)c4)[nH]c(=O)c32)cc1OC [Compound 190, 5-((3,4-Dichlorobenzyl)amino)-1-(3,4-dimethoxybenzyl)-1H-pyrazolo[4,3-d]pyrimidin-7(6H)-one] | > 64 | > 64 | >64 µg/mL | > 64 | > 64 | > 64 | > 64 | > 64 | – | – | – | – | – | – | –
13 | O=c1[nH]c(NCc2ccc(Cl)c(Cl)c2)nc2cnn(CCOC/C=N/O)c12 [Compound 191, (E)-2-(2-(5-((3,4-dichlorobenzyl)amino)-7-oxo-6,7-dihydro-1H-pyrazolo[4,3-d]pyrimidin-1-yl)ethoxy)acetaldehyde oxime] | 4 (≈ 9.73 µM) | > 64 | >64 µg/mL | 8 (≈ 19.5 µM) | 2 (≈ 4.86 µM) | 8 (≈ 19.5 µM) | 4 (≈ 9.73 µM) | 2 (≈ 4.86 µM) | – | – | – | – | – | – | –
14 | COC/C=C/Cn1ncc2nc(NCc3ccc(Cl)c(Cl)c3)[nH]c(=O)c21 [Compound 192, (E)-5-((3,4-dichlorobenzyl)amino)-1-(4-methoxybut-2-en-1-yl)-1H-pyrazolo[4,3-d]pyrimidin-7(6H)-one] | 4 (≈ 10.1 µM) | > 64 | >64 µg/mL | 2 (≈ 5.07 µM) | 2 (≈ 5.07 µM) | 4 (≈ 10.1 µM) | 2 (≈ 5.07 µM) | 1 (≈ 2.54 µM) | – | – | – | – | – | – | –
15 | COCCOC/C=C/Cn1ncc2nc(NCc3ccc(Cl)c(Cl)c3)[nH]c(=O)c21 [Compound 193, (E)-5-((3,4-dichlorobenzyl)amino)-1-(4-(2-methoxyethoxy)but-2-en-1-yl)-1H-pyrazolo[4,3-d]pyrimidin-7(6H)-one] | 4 (≈ 9.13 µM) | > 64 | >64 µg/mL | 4 (≈ 9.13 µM) | 4 (≈ 9.13 µM) | 8 (≈ 18.3 µM) | 4 (≈ 9.13 µM) | 1 (≈ 2.28 µM) | – | – | – | – | – | – | –
16 | CCOC(=O)C1(Cn2ncc3nc(NCc4ccc(Cl)c(Cl)c4)[nH]c(=O)c32)CCNCC1.Cl [Compound 194, ethyl 4-((5-((3,4-dichlorobenzyl)amino)-7-oxo-6,7-dihydro-1H-pyrazolo[4,3-d]pyrimidin-1-yl)methyl)piperidine-4-carboxylate hydrochloride] | 16 | > 64 | 64 µg/mL | > 64 | 32 | 32 | 64 | 8 | – | – | – | – | – | – | –
17 | Cl.O=c1[nH]c(NCc2ccc(Cl)c(Cl)c2)nc2cnn(CC3(CO)CCNCC3)c12 [Compound 195, 5-((3,4-dichlorobenzyl)amino)-1-((4-(hydroxymethyl)piperidin-4-yl)methyl)-1H-pyrazolo[4,3-d]pyrimidin-7(6H)-one hydrochloride] | 16 | > 64 | >64 µg/mL | > 64 | 64 | 64 | > 64 | 8 | – | – | – | – | – | – | –
